The source of these data is publication PMC7957705 (Molecules, 2021).

Data set [1] concerns the target T1, human MCH-R1 (Homo sapiens, UniProt Q99705).
T1 construct: expressed in transfected cells
Kind of data set: MCH-induced cytosolic Ca2+ ion mobilization, antagonist effect. Format: cell-based. Conditions: for Ki: antagonism of MCH-induced cytosolic Ca2+ mobilization, read-out: Ki (functionality, antagonism at MCH-R1). The protocol:
The functional assay was run onto cells expressing the hMCH-R1 receptor, as described in Wang et al.. In brief, the cells are suspended in DMEM buffer (Invitrogen), then distributed in microplates at a density of 4.104 cells/well. The fluorescent probe (Fluo4 Direct, Invitrogen) mixed with probenecid in Hanks’ Balanced Salt solution (HBSS) (Invitrogen) complemented with 20 mM HEPES (Invitrogen) (pH 7.4) is then added into each well and equilibrated with the cells for 60 min at 37 °C, then 15 min at 22 °C. Then, the assay plates are positioned in a microplate reader (CellLux, PerkinElmer) which is used for the addition of the test compound, reference agonist or HBSS buffer (basal control), and the measurements of changes in fluorescence intensity, which varies proportionally to the free cytosolic Ca^2+ ion concentration. For stimulated control measurements, MCH at 300 nM is added in separate assay wells. The results are expressed as a percentage of the control response to 300 nM MCH. The standard reference agonist is MCH, which is tested in each experiment at several concentrations to generate a concentration-response curve from which its EC50 value is calculated. For the antagonist effect, the results are expressed as a percentage inhibition of the control response to 30 nM MCH, which was added to all tested wells and controls 5 min after the candidate products.
A general note: A change in cytosolic calcium serves as a functional read-out for many receptors and channels.

The format of data set [2] is in vitro ADME. Conditions: for half-life: plasma. How it is done: Plasmas from 3 species (including commercially available human healthy donors) were adjusted to pH 7.4 if necessary. Incubations were performed at a concentration of 1 µM of the compound at 37 °C (in the presence of a final concentration of DMSO of 2.5% v/v. The incubations were stopped at 0, 15, 30, 60 and 120 min by methanol. Each time point was run in sextuplets. The sampling plates were then centrifuged (2500 rpm, 45 min, 4 °C) and the supernatants pooled. Samples were analyzed for parent compound by LC-MS/MS. The percentage of parent compound remaining at each time point relative to the 0 min sample is then calculated from LC-MS/MS peak area ratios. Then, the stability in plasma was evaluated by incubating human, rat or mouse plasma with the compound(s) as follows: the product (0.1 µM in TRIS buffer pH 7.4 0.1% BSA) was incubated with the plasma at 37 °C. The disappearance of the product was measured at 15, 45, 120, 240 and 300 min by mass spectrometry. Incubations were carried out in a robot Star (Hamilton France, Villebon-sur-Yvette, France). At each sampling time, 50 µL of the reaction medium was removed and diluted with 100 µL of acetonitrile. After centrifugation (20 min at + 4 °C, 4000 rpm), 75 µL of the supernatants was transferred into a 384 well injection plate. Ten microliters were injected onto UPLC coupled with a XEVO TQS mass spectrometer system (Waters, Milford, MA, USA). The unchanged product is quantified using a reference sample (0.1 µM) prepared during the incubation process. A second reference sample at 0.01 µM is prepared in the same conditions to verify the linearity of the detection method. The peak height (or area) is measured to calculate the half-life of the compound.

Data set [3] addresses T1, human MCH-R1. Set-up: method as in PMID 19619599, PMID 23267345. Conditions: cited from earlier work.
Data set [4] has as its target T1, human MCH-R1. Kind of data set: Binding displacement of [125I]-[Phe13,Tyr19]-MCH at membranes expressing human MCH-R1. How it is done: Stable cell lines were obligatory for all receptor programs. We cloned the human receptor and established the cell line as previously described. In brief, HEK293 (HEK) cells were grown in Dulbecco’s Modified Eagle medium (DMEM) supplemented with 10% fetal calf serum, 2 mM glutamine, 100 IU/mL penicillin and […] streptomycin. They were seeded at 5 × 10^6 cells in T75 cm^2 culture flasks. One day later, they were transfected with […] of the pcDNA3.1 (Invitrogen, Groningen, The Netherlands) containing the human MCH-R1 using lipofectamine (Life Technologies, Cergy Pontoise, France), as previously described. One day later, cells were trypsinized, resuspended in a complete DMEM medium containing […] of geneticin and seeded at different dilutions in 96-well plates which were kept for 2 to 3 weeks in a humidified CO2 incubator. At the end of the selection period, isolated clones were picked up, amplified, and further characterized by cyclic AMP experiments. For each cell line, one positive clone was subcloned before being used for all of the cyclic AMP, [^35S]-GTPγS and receptor binding experiments necessary to characterize them. The stable HEK293 cell line expressing the human MCH-R1 was HEK-hMCH-R1.
Membrane preparations were classically made as previously described. In brief, the HEK-hMCH-R cell line was grown to confluency, harvested in PBS buffer containing 2 mM EDTA and centrifuged at 10,000× g for 5 min (4°C). The resulting pellet was suspended in 20 mM Hepes buffer (pH 7.5), containing 5 mM EGTA and homogenized using a Kinematica polytron. The homogenate was then centrifuged (95,000× g, 30 min, 4 °C) and the resulting pellet was suspended in 50 mM HEPES buffer (pH 7.5), containing 10 mM MgCl2 and 2 mM EGTA. Aliquots of membrane preparations were stored at −80 °C until use. Binding has been described in numerous publications and the test was based on Mac Donald et al.’s description. […] Nonspecific binding is determined in the presence of 0.1 μM MCH. […] The filters are dried and then counted for radioactivity in a scintillation counter (Topcount, Packard) using a scintillation cocktail (Microscint 0, Packard). The results are expressed as percentage inhibition of the control radioligand specific binding. The standard reference compound is MCH, which was tested in each experiment at 8 concentrations to obtain a competition curve from which its IC50 is calculated. The high level of assay robustness and reproducibility of each control monitored over several decades (internal data base, Eurofins) and included in every assay ensure results’ reliability even when performed only twice. […]

Data set [5] can be described thus: Stability and metabolite identification on rat hepatocytes. To be noted: 20 µM, 5 h. Type of data set: in vitro ADME. How it is done: (§1) The stability of the compound was studied on hepatocyte cultures from Wistar rats and CD1 mice. The compound was incubated at 20 µM in the presence of 1.106 cells/mL for 5 h. The incubation was then stopped with acetonitrile (v/v) and the supernatant, after a brief centrifugation (2500 rpm, 5 min 4 °C) was submitted to LC-MS analysis, using a THERMO […] coupled to a Waters Acquity UPLC System equipped with a Waters Acquity UPLC C18 100 × 2.1 mm 1.7 µm column.

Data set [6] in a line: Stability and metabolite identification on mouse hepatocytes. Conditions: 20 µM, 5 h. Type of data set: in vitro ADME. The protocol:
as §1

Read-outs that look alike come from different tables or passages of the source. Where a SMILES comes first, the peptide text is derived from it. Bridges are numbered along the chain shown (N, C = ends). Triazole bridges read from a SMILES are 1,4-linked. [ ]: non-standard residue; d: D form. The star is where a group is joined. Benzoyl(4-guanidino) = N=C(N)Nc1ccc(C(=O)*)cc1; Aha = [N-]=[N+]=NCC[C@H](N)C(=O)O; β3hV = CC(C)[C@H](N)CC(=O)O; Pra = C#CC[C@H](N)C(=O)O Bounds are passed on as bounds.

T1 sequence (Q99705 whole entry): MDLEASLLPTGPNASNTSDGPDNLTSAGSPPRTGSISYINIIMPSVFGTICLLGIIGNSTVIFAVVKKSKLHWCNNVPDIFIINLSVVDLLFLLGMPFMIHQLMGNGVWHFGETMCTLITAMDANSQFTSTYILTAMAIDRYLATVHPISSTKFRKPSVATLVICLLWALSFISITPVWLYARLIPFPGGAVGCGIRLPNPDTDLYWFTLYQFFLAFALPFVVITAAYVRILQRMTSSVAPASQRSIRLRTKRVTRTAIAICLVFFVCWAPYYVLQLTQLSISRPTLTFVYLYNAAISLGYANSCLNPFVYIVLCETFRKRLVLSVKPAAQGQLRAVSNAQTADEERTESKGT

By Ki is commonly meant the dissociation constant of the complex between target and ligand, obtained from inhibition or displacement. As usually defined, the half-life is the time needed for the level to fall by half in the phase considered. On to `CSCC[C@@H]1NC(=O)[C@@H](NC(=O)c2ccc(NC(=N)N)cc2)CSSC[C@@H](C(=O)N[C@@H](Cc2c[nH]c3ccccc23)C(=O)O)NC(=O)[C@@H]2CCCN2C(=O)[C@H](CCCNC(=N)N)NC(=O)[C@H](Cc2ccc(O)cc2)NC(=O)[C@H](C(C)C)NC(=O)[C@H](CCCNC(=N)N)NC(=O)[C@H](CC(C)C)NC1=O` [S38151, p-guanidinobenzoyl-Des-Gly(10)-MCH(7-17), reference compound] ({Benzoyl(4-guanidino)}-CMLRVYRPCW-OH; disulfide 1-9; N-terminus and C-terminus assumed), for which the Ki on human MCH-R1 [1] was 5 nM. Besides, the half-life in data set [2] (human, pH 7.4) was determined as 0.233 ± 0.0167 h; in data set [2] (mouse, pH 7.4), 0.383 ± 0.03 h; in data set [2] (rat, pH 7.4) it was 1 ± 0.05 h. On human MCH-R1 [3], the “affinity at the human MCH-R1 receptor” value is reported as “low nanomolar range”.

In the case of `CSCC[C@@H]1NC(=O)[C@@H](NC(=O)c2ccc(NC(=N)N)cc2)CCn2cc(nn2)C[C@@H](C(=O)N[C@@H](Cc2c[nH]c3ccccc23)C(=O)O)NC(=O)[C@@H]2CCCN2C(=O)[C@H](CCCNC(=N)N)NC(=O)C[C@H](C(C)C)NC(=O)[C@H](CCCNC(=N)N)NC(=O)[C@H](CC(C)C)NC1=O` [GPS15290, pGua-[N3-hAla-MLR-βhVal-RP-hPra]-W-OH] ({Benzoyl(4-guanidino)}-[Aha]MLR[β3hV]RP[Pra]W-OH; triazole 1-8), the “affinity at the MCH-R1 receptor (in words)” value at human MCH-R1 [4] was “superior affinity”. Besides, the “antagonistic functionality (in words)” value on human MCH-R1 [1] is given as “high picomolar range”. Also, on human MCH-R1 [1], the Ki turned out to be 0.028 nM. Further, the “stability in plasma (in words)” value in data set [2] (human), in data set [2] (mouse) and in data set [2] (rat) was “most stable compound” throughout. For the same molecule, the values for the half-life in data set [2] (human), in data set [2] (mouse) and in data set [2] (rat) were no less than 5 h, 2.88 ± 0.15 h and no less than 5 h, respectively. The “initial dose remaining after incubation in mice plasma” value in data set [2] (mouse) is recorded as roughly 20%. Also, the stability on hepatocytes entry in data set [5] and in data set [6] was “mild stability” each time.
